Measured values published in patent publication EP1591107A1, “Process for the selective increase of a release rate of an active material from a pharmaceutical composition” (Pfizer GmbH Arzneimittelwerk Gödecke, priority 2004, dated 2005).
Values after ≈ are worked out from the molar mass of the structure shown. Structures can show the parent of a compound that is named as a salt. Where two headings read alike, the source gives them in different places.

Legend:
[1] = in water, classification taken from the European Pharmacopoeia, cited from earlier work
[2] = Solubility in water (European Pharmacopoeia solubility classes)

Compound | solubility class according to the European Pharmacopoeia [1] | volume of water in which 1 g is soluble ([2]; 1 g of active material, water) [mL] | solubility class according to the definition of the European Pharmacopoeia ([2]; class derived from the printed solubility in water) | solubility ([2]; water) [mg/mL] | solubility class according to the European Pharmacopoeia ([1]; hydrochloride) | solubility class according to the European Pharmacopoeia ([1]; listed as Diltiazem® hydrochloride, hydrochloride)
CC(C)C[C@H](CN)CC(=O)O [pregabalin] | sparingly soluble | 31 | sparingly soluble | 32.1 (≈ 202 mM) |  | 
COc1ccc([C@@H]2Sc3ccccc3N(CCN(C)C)C(=O)[C@@H]2OC(C)=O)cc1 [diltiazem hydrochloride] |  |  |  |  | freely soluble | very soluble
